# Results: patent US8546137B2, “Inhibition of dendritic cell-driven regulatory T cell activation and potentiation of tumor antigen-specific T cell responses by interleukin-15 and MAP kinase inhibitor” (The Board of Trustees of the University of Arkansas, priority 2007, dated 2013)
# Assays:
# [1] = system: peptide-loaded autologous LCL; experiment: 51Cr-release cytotoxicity assay, CD8+ T cells against peptide-loaded autologous LCL; format: cell-based, human
# Procedure: (§1) Peripheral blood was drawn from healthy adult volunteer donors, following an IRB-approved protocol. PBMC were recovered by gradient centrifugation (Lymphoprep; Greiner Bio-One, Longwood, Fla.). For preparation of DC, PBMC were placed in 6 well plates (Costar, Cambridge, Mass.) at a concentration of 5×10^6/well in AIM-V medium. After incubation for 2-3 hours at 37° C., non-adherent cells were removed and the medium was replaced with AIM-V plus 800 U/ml GM-CSF and 500 U/ml IL-4. On days 3 and 5, half the medium was removed and replaced with AIM-V plus 800 U/ml GM-CSF and 500 U/ml IL-4. Maturation cytokines (1 μM/ml PGE2, 1000 U/ml TNFα, and 500 U/ml IL-1β) were added on day 5. Where indicated, IL-15 (100 ng/ml) was present throughout DC culture (i.e., from day 0, and supplemented on days 3 and 5). For stimulation of peptide-specific CD4^+ helper T cell and CD8^+ CTL responses, DC were loaded with 50 μg/ml of peptide on day 5 (at the time of addition of maturation cytokines) and the DC were harvested 2 days later. The DC were then washed once with AIM-V medium and used for T cell stimulation at a PBMC:DC ratio of 30:1. After 7 days, T cells were collected and restimulated with peptide-loaded DC. […]
# (§2) Standard ^51Cr-release assays were performed as described (24). […] The percentage of target cell lysis was calculated as described (24).
# [2] = system: peptide-loaded autologous LCL; experiment: 51Cr-release cytotoxicity assay, CD4+ T cells against peptide-loaded autologous LCL; format: cell-based, human
# Procedure: as §1, §2
# [3] = system: hepsin 48-84 peptide-specific CD4+ T cells; experiment: TNFα expression by CD4+ T cells stimulated with treated DC; format: cell-based, human; conditions: DC treated throughout culture; IL-15 100 ng/ml, inhibitor 10 μM; relative to standard DC; T cells maintained with IL-2
# Procedure: (§3) Foxp3 expression was determined according to the manufacturer's staining protocol (eBioscience), using the provided fixation and permeabilization buffers. Intracellular cytokine expression was measured by flow cytometry after overnight co-culture of T cells with peptide-pulsed or control autologous LCL. T cells (1.5×10^6) were plated in 12 well Costar plates in 2 ml RPMI/10Hu. T cells were stimulated with phorbol myristyl acetate (50 ng/ml) and ionomycin (500 ng/ml) as a positive control. At the onset of co-culture, 10 μg/ml of Brefeldin A was added to block cytokine release. Cells were collected after overnight stimulation and fixed in 2% paraformaldehyde in PBS for 10 minutes at room temperature. The cells were washed once in PBS and again in 0.5% saponin and 1% BSA in PBS. T cells were labeled with cytokine-specific PE or FITC-conjugated mAb for 30 minutes at room temperature. After staining, the cells were washed twice in 0.5% saponin and 1% BSA in PBS, once with 0.5% BSA in PBS, and fixed in 2% paraformaldehyde in PBS. Samples were analyzed with a FACSCalibur (Becton-Dickinson) and Cellquest or WinMDI software.
# Treatment of DC with IL-15 and a p38 MAP kinase inhibitor enhances CD4^+ helper T cell TNFα expression in response to tumor antigen stimulation, and diminishes Treg foxp3 expression. […]
# [4] = system: matriptase 170-204 peptide-specific CD4+ T cells; experiment: Treg assay: coculture of peptide-specific CD4+ T cells with autologous alloreactive CD4+ T cells (MLR, 3H-TdR); format: cell-based, human
# Procedure: (§4) Peripheral blood was drawn from healthy adult volunteer donors, following an IRB-approved protocol. PBMC were recovered by gradient centrifugation (Lymphoprep; Greiner Bio-One, Longwood, Fla.). For preparation of DC, PBMC were placed in 6 well plates (Costar, Cambridge, Mass.) at a concentration of 5×10^6/well in AIM-V medium. After incubation for 2-3 hours at 37° C., non-adherent cells were removed and the medium was replaced with AIM-V plus 800 U/ml GM-CSF and 500 U/ml IL-4. On days 3 and 5, half the medium was removed and replaced with AIM-V plus 800 U/ml GM-CSF and 500 U/ml IL-4. Maturation cytokines (1 μM/ml PGE2, 1000 U/ml TNFα, and 500 U/ml IL-1β) were added on day 5. Where indicated, IL-15 (100 ng/ml) was present throughout DC culture (i.e., from day 0, and supplemented on days 3 and 5). For stimulation of peptide-specific CD4^+ helper T cell and CD8^+ CTL responses, DC were loaded with 50 μg/ml of peptide on day 5 (at the time of addition of maturation cytokines) and the DC were harvested 2 days later. The DC were then washed once with AIM-V medium and used for T cell stimulation at a PBMC:DC ratio of 30:1. After 7 days, T cells were collected and restimulated with peptide-loaded DC. After the second stimulation, CD4^+ or CD8^+ T cells were recovered by positive selection with anti-CD4 or anti-CD8 magnetic beads (Dynabeads, Invitrogen), respectively, yielding populations of at least 95% purity. During the second and subsequent T cell passages (up to a maximum of six restimulations with peptide-loaded DC, at T cell:DC ratios of between 30:1 and 10:1), 20-100 U/ml IL-2 was added to the medium, and the cultures were periodically fed (every 2-3 days) by changing 50-70% of the medium and addition of fresh IL-2. Where indicated, T cell cultures were supplemented with 100 ng/ml IL-15, starting with the second passage.
# DC-activated, peptide-specific T cells were tested for Treg activity in 3 day microwell cocultures with autologous alloreactive CD4^+ T cells at a 1:1 ratio. The alloreactive CD4^+ T cells were stimulated with irradiated (7,500 cGy) allogeneic LCL at a 2:1 ratio. Transwell cocultures were conducted in 12-well Costar plates with 0.4 μm polycarbonate membrane inserts, at the same cell ratios as conventional microwell cocultures. Peptide-specific T cells were placed in the upper chamber, and alloreactive CD4^+ T cells plus irradiated allogeneic LCL were placed in the lower chamber. For all assays, proliferation of alloreactive CD4^+ T cells was determined by addition of 1 μCi/well ^3H-TdR for the last 16 hours of incubation. No exogenous cytokines were added to Treg coculture assays. Controls were included to correct for background proliferation of individual cell populations or spontaneous alloreactivity of peptide-specific T cells.
# [5] = system: tumor antigen-specific CD4+ T cells; experiment: PD-1 expression by CD4+ T cells stimulated with treated DC; format: cell-based, human; conditions: treatment of DC
# Procedure: (§5) Treatment of DC with IL-15 and a p38 MAP kinase inhibitor enhances CD4^+ helper T cell TNFα expression in response to tumor antigen stimulation, and diminishes Treg foxp3 expression. DC were treated with IL-15 (100 ng/ml) and/or a p38 MAP kinase inhibitor (10 μM p38 MAP kinase inhibitor III, from Calbiochem, La Jolla, Calif.) throughout their culture (i.e., from day 0 through completion of DC maturation on day 7). DC were loaded with the hepsin 48-84 peptide antigen on day 5 (i.e., at the time of addition of maturation cytokines).
# [6] = system: matriptase 170-204 peptide-specific, DC-activated CD8+ T cells; experiment: Foxp3 and GITR expression by flow cytometry, CD8+ T cells; format: cell-based, human
# Procedure: as §1, with “DC. After the second stimulation, CD4^+ or CD8^+ T cells were recovered by positive selection with anti-CD4 or anti-CD8 magnetic beads (Dynabeads, Invitrogen), respectively, yielding populations of at least 95% purity.” for “DC.”
# (§6) Foxp3 expression was determined according to the manufacturer's staining protocol (eBioscience), using the provided fixation and permeabilization buffers. Intracellular cytokine expression was measured by flow cytometry after overnight co-culture of T cells with peptide-pulsed or control autologous LCL. […] Samples were analyzed with a FACSCalibur (Becton-Dickinson) and Cellquest or WinMDI software.
# [7] = system: matriptase 170-204 peptide-specific, DC-activated CD4+ T cells; experiment: Foxp3 and GITR expression by flow cytometry, CD4+ T cells; format: cell-based, human
# Procedure: as §4
# as §3, with “T cells were labeled with cytokine-specific PE or FITC-conjugated mAb for 30 minutes at room temperature. After staining, the cells were washed twice in 0.5% saponin and 1% BSA in PBS, once with 0.5% BSA in PBS, and fixed in 2% paraformaldehyde in PBS.” left out
# [8] = system: matriptase 170-204 peptide-specific CD8+ T cells; experiment: Treg assay: coculture of peptide-specific CD8+ T cells with autologous alloreactive CD4+ T cells (MLR, 3H-TdR); format: cell-based, human
# Procedure: as §1, with “later.” for “later. The DC were then washed once with AIM-V medium and used for T cell stimulation at a PBMC:DC ratio of 30:1. After 7 days, T cells were collected and restimulated with peptide-loaded DC.”
# DC-activated, peptide-specific T cells were tested for Treg activity in 3 day microwell cocultures with autologous alloreactive CD4^+ T cells at a 1:1 ratio. […] For all assays, proliferation of alloreactive CD4^+ T cells was determined by addition of 1 μCi/well ^3H-TdR for the last 16 hours of incubation. […]
# [9] = system: tumor antigen-specific CD4+ T cells; experiment: CCR4 and CXCR4 expression by CD4+ T cells stimulated with treated DC; format: cell-based, human; conditions: treatment of DC
# Procedure: as §5
# [10] = system: matriptase 170-204 peptide-specific CD4+ T cells; experiment: Intracellular Th1 cytokine (TNFα, IFNγ) expression after challenge with peptide-loaded autologous LCL; format: cell-based, human
# Procedure: as §1, with “5).” for “5). For stimulation of peptide-specific CD4^+ helper T cell and CD8^+ CTL responses, DC were loaded with 50 μg/ml of peptide on day 5 (at the time of addition of maturation cytokines) and the DC were harvested 2 days later. The DC were then washed once with AIM-V medium and used for T cell stimulation at a PBMC:DC ratio of 30:1. After 7 days, T cells were collected and restimulated with peptide-loaded DC.”
# as §6
# [11] = system: CD25 preferentially expressed by CD4+ Treg; conditions: patients with renal cell carcinoma, combined with tumor RNA-transfected DC vaccination; cited from earlier work
# [12] = conventional DC or IL-15-treated DC, T cells maintained with IL-2 plus IL-15
# [13] = IL-15 added to CD4+ T cell cultures activated with conventional DC
substance,measurement,setting,value
"IL-15: interleukin-15, cytokine from R & D Systems, used at 100 ng/ml in DC and/or T cell culture","gain in lysis, CD8+ T cell cytotoxicity",[1]; IL-15 treatment of DC or CD8+ T cells,lower than observed for CD4^+ T cell responses
same,CD8+ T cell cytotoxicity against peptide-loaded LCL,[1]; combined treatment of both DC and CD8+ T cells with IL-15,strong synergistic increase
same,CD4+ T cell lysis of peptide-loaded LCL,"[2]; IL-15-treated DC followed by culture with IL-2 plus IL-15, additive",further gain in lysis
same,CD4+ T cell cytotoxicity,[2]; IL-15 treatment of DC or CD4+ T cells,marked enhancement
same,CD4+ T cell TNFα expression upon tumor antigen stimulation,[3],did not significantly increase
same,restoration of the mixed lymphocyte reaction (CD4+ Treg activity),"[4]; IL-15-treated DC, or IL-15 treatment of CD4+ T cells activated with conventional DC",significant restoration
same,inhibition of the mixed lymphocyte reaction by peptide-specific CD4+ T cells (Treg activity),"[4]; T cells cultured with IL-15, or activated by DC cultured with IL-15, or both (bars B, C, D), conventional about 90%",less than 60%
same,restoration of the mixed lymphocyte reaction (CD4+ Treg activity),[4]; both DC and CD4+ T cells treated with IL-15,further enhancement of alloreactivity
same,restoration of the mixed lymphocyte reaction (CD4+ Treg activity),"[4]; peptide-specific CD4+ T cells irradiated before coculture, IL-15 on DC, T cells or both",almost total restoration of the MLR
same,PD-1 expression by tumor antigen-specific CD4+ helper T cells,[5],markedly reduces
same,"Foxp3 expression, proportion of CD8+ T cells","[6]; activated with IL-15-treated DC, maintained with IL-2",37%
same,GITR expression by CD8+ T cells,[6]; [12],did not show increased GITR expression
same,frequency of Foxp3+ CD8+ T cells,[6]; [12],elevated frequencies
same,Foxp3 expression by CD4+ T cells,[7]; [13],did not result in a significant change
same,frequency of GITR+ CD4+ T cells (total),[7]; [13],8%
same,"Foxp3 expression, proportion of CD4+ T cells","[7]; activated with IL-15-treated DC (100 ng/ml), maintained with IL-2, conventionally activated cells 33%",20%
same,frequency of Foxp3+ and GITR+ CD4+ T cells,[7]; activated with IL-15 treated DC and maintained with IL-2 plus IL-15,markedly enhanced
same,CD8+ Treg activity,[8]; IL-15 treatment of DC alone,particularly effective in diminishing
same,CD8+ regulatory function,"[8]; IL-15 treatment of DC, of CD8+ T cells, or both",markedly diminished
same,CD4+ T cell expression of CCR4,[9],slightly inhibited
same,CD4+ T cell expression of CXCR4,[9],enhances
same,"antigen-driven cytokine responses (TNFα, IFNγ) of CD4+ T cells",[10]; combined IL-15 treatment of both DC and CD4+ T cells,synergistic gain
same,frequency of CD4+ T cells expressing TNFα and IFNγ,[10]; treatment of DC with IL-15 or treatment of CD4+ T cells with IL-15,small increment
denileukin diftitox,Treg in the peripheral blood,[11],reduced numbers of Treg
same,generation of tumor-specific T cell responses,[11],enhanced generation of tumor-specific T cell responses
p38 MAP kinase inhibitor III [reference compound],CD4+ T cell TNFα expression upon tumor antigen stimulation,[3],did not significantly increase
same,PD-1 expression by tumor antigen-specific CD4+ helper T cells,[5],markedly reduces
same,CD4+ T cell expression of CCR4,[9],markedly enhanced
same,CD4+ T cell expression of CXCR4,[9],inhibited
